The numbers were not newly measured in patent US10689308B2, “Solvent for thiophosphoric triamide or dicyandiamide solutions, and related methods” (RHODIA OPERATIONS, priority 2014, dated 2020), which cites them from elsewhere.

For the series the following is noted: dicyandiamide in a solid form; background statement.

As for `N#CNC(=N)N` [Dicyandiamide], the solubility in water entry is given as “about 41 grams per liter”.
